For assay [1], the system named is TNBC cells (SUM-159, MDA-MB-231). The assay is described as follows: MTT cell viability, TNBC cells. Format: cell-based, Human. The note with it: for pIC50: MTT cell viability assays, read-out: antiproliferative IC50 against TNBC cells. On the procedure: Cell viability assays: Cells were seeded in 96-well plates (2×10^3 cells/well) one day before the treatment. Cells were treated with varying concentrations of ERX-41 or ERX-11 analogs for 3-6 days. Then effects of ERX-41 or ERX-11 analogs on cell viability were measured in triplicate or sextuplicate with multiple biological replicates using the WST-1 (Promega), MTT as previously described^33 or CellTiter-Glo 2.0 (Promega) assays.

The test system of assay [2] is ovarian cancer cell line xenograft (ES2). In words: Ovarian cancer cell line xenograft ES2. Format: in vivo, mice. The note with it: 10 mg/kg/day i.p. The method, then: Animal Studies: All animal experiments were performed using UTHSA and UTSW IACUC approved protocols. For cell based xenograft tumor assays, TNBC cells (2×10^5-2×10^6) were mixed with an equal volume of matrigel and implanted in the mammary fat pads of 6-week-old female athymic nude mice as described^33. BALB/c mice were used for D2A1 syngeneic model. Once tumors reached measurable size, mice were divided into control (vehicle) and ERX-41 (10 mg/kg/oral) treatment groups. Mice bearing TNBC PDX tumors were purchased from Jackson laboratory (TM00089; TM00096; TM00098). TNBC PDX line UTPDX0001 establishment was earlier described^38. WHIM-20 ER+PDX model was purchased from Horizon Labs. OCa-PDX-38 was received from UTHSA ObGyn tissue procurement core. When tumors reached ˜750 mm^3 they were dissected into 2 mm^3 pieces and implanted into the mammary fat pads of 6 weeks old female SCID or NSG mice. When the tumor volume reached ˜200 mm^3, mice were randomized for treatment. The mice were monitored daily for adverse toxic effects and tumor volume was measured every 3-4 days using calipers. For establishing ES2 tumors, ES2/GFP/LUC cells were injected i.p. and tumors were measured twice a week using Xenogen in vivo imaging system. […] The mice were monitored daily for adverse toxic effects. […] The sections were scored by two independent evaluators blinded to the patient's clinical status.

Assay [3] has as its system parental SUM-159 xenografts. In words: Parental SUM-159 xenografts. It counts as in vivo, SCID mice. On the procedure: Knockout studies: For xenograft knockout tumor models, 1.8×10^6SUM159 parental, or 1.8×10^6SUM159-LIPA KO cells were harvested with 1% trypsin-EDTA, washed and resuspended in sterile PBS. Cells were initially implanted into the mammary fat pads of six-week-old female C.B-17 (SCID) mice purchased from Envigo (Indianapolis, IN, USA). Mice were monitored twice weekly for tumor growth measured by Vernier calipers where tumor volume was calculated by the formula (length×width^2)/2. Tumors were dissected into 2 mm cubes when they reached 800 mm^3 in size and subsequently implanted into the mammary fat pad of twelve SCID female mice. Once tumor fragments reached 150 mm^3 in size, mice were randomly divided into vehicle group (n=6, control, 0.3% Hydroxy cellulose, i.p.) and treatment group (n=6, ERX-41, 10 mg/kg/day/i.p.). Institutional guidelines were followed to determine experimental end points.

pIC50: −log10 of the molar value. Where two headings read alike, the source gives them in different places. Some results are limits rather than exact numbers.

For the compound `CC(C)COc1cc(C(=O)Nc2ccc(C(=O)N[C@H]3CC[C@H](C)CC3)cc2OCC(C)C)ccc1NC(=O)c1ccc([N+](=O)[O-])c(OCCO)c1` [ERX-41], the results for the pIC50 in assay [1] (Homo sapiens) and in assay [1] were 6.90 to 7.00 and 7.00, respectively. In assay [1] (from IC50>10 μM to 100 nM), the “enhancement of potency in TNBC, ERX-41 vs ERX-11” value was greater than 100 fold. In assay [2], the “activity against ES2 xenograft” value was “has activity against”. In addition, the “Ki67 staining, parental xenografts” value in assay [3] (at sacrifice) is reported as “decrease in Ki67 staining”. Moreover, the “response of parental xenografts” value in assay [3] (i.p., 10 mg/kg/day) was “responded significantly”.

The values are drawn from patent US20250114313A1, “OLIGO-BENZAMIDE ANALOGS AND THEIR USE IN CANCER TREATMENT” (BOARD OF REGENTS, THE UNIVERSITY OF TEXAS SYSTEM, priority 2022, published 2025).
